# Measured values: patent US6417174B1, “Inhibitors of β-lactamases and uses therefor” (Northwestern University, priority 1997, dated 2002)
# Like-named read-outs stand apart in the source and are kept apart here.
# How the values were obtained:
# [1] = molecular target: AmpC β-lactamase from E. coli (Escherichia coli, UniProt P00811); assay: biochemical; format: biochemical
# [2] = molecular target: T1, TEM-1 β-lactamase from E. coli (Escherichia coli, UniProt P62593); assay: Inhibition of TEM-1 β-lactamase, spectrophotometric assay (FAP substrate); format: biochemical
# T1 construct: gift: Natalie Strynadka, University of Alberta
# [3] = tested on: E. coli RYC1000 harboring plasmid pBGS19 (no β-lactamase); assay: microbe, parasite or virus in culture; format: cell-based, Escherichia coli; settings: for MIC of ceftazidime plus inhibitor: Table 3A, proportion 4/1
# Procedure: (§1) After incubation, the growth of the cells was visually inspected. The minimum inhibitory concentration (MIC) is the lowest concentration where there no cell growth was observed.
# (§2) The following strains were used: Enterobacter cloacae cell line with derepressed β-lactamase production (Ent-Der), and Escherichia coli RYC1000 (araD139 D lacU169 rpsL D rib7 thiA gyrA recA56) cell lines, harboring the plasmid pBGS19 (with no β-lactamase), or the β-lactamase containing plasmids pBGAmpC (AmpC β-lactamase from E. coli; Eco-AmpC), or pBGAmpC-MHN (AmpC β-lactamase from Enterobacter cloacae; Eco-AmpCEnt). […] TEM-10 and TEM-24 differ from TEM-1 due to the following point substitutions: TEM-10 (R164S, E240K); TEM-24 (L102K, L162S, S235T, A237K). TEM-10 and TEM-24 also differ from TEM-1 in being extended spectrum enzymes (i.e., they react with a greater range of substrates than TEM-1). Also tested were clinical isolates of Pseudomonas aeruginosa. All bacterial strains and plasmids are available from Jesus Blazquez and Fernando Baquero, Servicio de Microbiologia, Hospital Ramon y Cajal, National Institute of Health, Madrid, Spain.
# (§3) Several ratios, including 1:1, 2:1, 4:1, and 1:3, of β-lactam antibiotic (amoxicillin (AX) or ceftazidime (CAZ)) to boronic acid compound were used in the assays. Tazobactam (TAZO), a clinically used β-lactamase inibitor, was used as a positive control.
# [4] = tested on: E. coli RYC1000 harboring plasmid pBGAmpC-MHN (AmpC β-lactamase of Enterobacter cloacae); assay: microbe, parasite or virus in culture; format: cell-based, Escherichia coli; settings: for MIC of ceftazidime plus inhibitor: Table 3A, proportion 4/1, given as CAZ/inhibitor; as to MIC of ceftazidime plus inhibitor: values in µg/ml
# Procedure: as §1, §2, §3
# [5] = tested on: E. coli RYC1000 harboring plasmid pBGTEM-24 (TEM-24 β-lactamase); assay: microbe, parasite or virus in culture; format: cell-based, Escherichia coli; settings: for MIC of ceftazidime plus inhibitor: Table 3A, proportion 4/1, given as CAZ/inhibitor; as to MIC of ceftazidime plus inhibitor: values in µg/ml
# Procedure: as §1, §2, §3
# [6] = tested on: β-lactamase derepressed strain of Enterobacter cloacae (Ent-Der); assay: microbe, parasite or virus in culture; format: cell-based; settings: for MIC of ceftazidime plus inhibitor: Table 3A, proportion 4/1, given as CAZ/inhibitor; as to MIC of ceftazidime plus inhibitor: values in µg/ml
# Procedure: as §1, §2, §3
# [7] = tested on: E. coli RYC1000 harboring pBGAmpC-E. coli producing AmpC (ECR-AmpCEc); assay: microbe, parasite or virus in culture; format: cell-based, Escherichia coli
# Procedure: as §1, §2, §3
# [8] = tested on: E. coli RYC1000 harboring pBGTEM-10 producing TEM-10 β-lactamase (EC-T10); assay: microbe, parasite or virus in culture; format: cell-based, Escherichia coli
# Procedure: as §1, §2, §3
# [9] = tested on: E. coli RYC1000 harboring a plasmid coding for a mutant of AmpC from Enterobacter (ECR-AmpCEnM); assay: microbe, parasite or virus in culture; format: cell-based, Escherichia coli
# Procedure: as §1, §2, §3
# [10] = tested on: E. coli RYC1000 harboring pBGTEM-1 producing TEM-1 β-lactamase (EC-T1); assay: microbe, parasite or virus in culture; format: cell-based, Escherichia coli
# Procedure: as §1, §2, §3
# [11] = Tables 2A/2B, pH 7.0, 25° C., 100 μM cephalothin, read-out: Ki E. coli AmpC
# [12] = pH 7, read-out: Ki E. coli AmpC
# [13] = Tables 2A/2B, pH 7.0, 25° C., 100 μM FAP, N.I. = no inhibition observed at an inhibitor concentration of 100 μM, read-out: Ki E. coli TEM-1
# [14] = Table 5, as described in Example 2, read-out: Ki AmpC
# [15] = Escherichia coli, read-out: MIC of amoxicillin (AX)
# [16] = Enterobacter cloacae, read-out: MIC of amoxicillin (AX)
# T1 sequence (P62593 24-286 limits assumed): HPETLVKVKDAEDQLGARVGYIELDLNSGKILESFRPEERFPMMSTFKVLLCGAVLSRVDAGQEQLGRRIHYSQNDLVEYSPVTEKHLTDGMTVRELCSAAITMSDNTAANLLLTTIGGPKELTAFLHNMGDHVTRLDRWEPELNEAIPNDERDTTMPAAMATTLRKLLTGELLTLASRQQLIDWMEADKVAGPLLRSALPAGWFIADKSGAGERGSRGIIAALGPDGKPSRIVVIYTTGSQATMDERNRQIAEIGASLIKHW
# Chain of AmpC β-lactamase from E. coli (P00811 20-377): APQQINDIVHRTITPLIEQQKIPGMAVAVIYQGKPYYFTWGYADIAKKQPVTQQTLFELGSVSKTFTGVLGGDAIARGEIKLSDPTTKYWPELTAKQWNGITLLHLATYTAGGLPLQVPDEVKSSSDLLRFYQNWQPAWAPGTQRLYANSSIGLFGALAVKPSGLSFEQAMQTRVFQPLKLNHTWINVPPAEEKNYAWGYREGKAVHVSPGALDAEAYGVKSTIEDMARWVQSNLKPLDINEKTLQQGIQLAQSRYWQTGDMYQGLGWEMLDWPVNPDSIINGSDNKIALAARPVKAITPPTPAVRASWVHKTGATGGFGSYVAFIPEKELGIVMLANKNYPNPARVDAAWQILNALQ
smiles,measurement,setting,value
OB(O)[C@@H]1CCOC1 [(R)-3-tetrahydrofuranyl-boronic acid],Ki,[1]; read-out: Ki for AmpC,1.4 ± 0.1 µM
"OB(O)c1ccc(Br)cc1 [4BPB, 4-bromophenylboronic acid]",Ki,[1]; Ki E. coli AmpC,2.6 µM
same,Ki,[2],31.3 µM
OB(O)c1ccc2ccccc2c1 [2-naphthylboronic acid],Ki,"[1]; Example 1, read-out: Ki for AmpC",8.5 ± 1.8 µM
OB(O)[C@H]1CCOC1 [(S)-3-tetrahydrofuranylboronic acid],Ki,[1]; read-out: Ki for AmpC,15.8 ± 0.8 µM
"OB(O)c1ccccc1 [2FDB, phenylboronic acid, reference compound]",Ki,[1]; [11],8 µM
same,Ki,[2],> 100 µM
"Oc1ccc(N=Nc2ccc(Br)cc2)cc1B1OB(c2cc(N=Nc3ccc(Br)cc3)ccc2O)OB(c2cc(N=Nc3ccc(Br)cc3)ccc2O)O1 [4BPAPB, 2,4,6-tris(β-(4-bromophenylazo)-2-hydroxyphenyl) boroxin]",Ki,[1]; [12],7.2 µM
same,Ki,[2]; [13],1.2 µM
same,MIC of ceftazidime plus inhibitor,[3]; pBGS19,<0.25 µg/mL
same,MIC of inhibitor used alone without ceftazidime,"[3]; Table 3B, pBGS19",128 µg/mL
same,MIC of ceftazidime plus inhibitor,[4]; AmpC-MHN,8/2
same,MIC of inhibitor used alone without ceftazidime,"[4]; Table 3B, AmpC-MHN",256 µg/mL
same,MIC of ceftazidime plus inhibitor,[5],256/64
same,MIC of inhibitor used alone without ceftazidime,[5]; Table 3B,256 µg/mL
same,MIC of ceftazidime plus inhibitor,[6]; Ent. Der.,512/128
same,MIC of inhibitor used alone without ceftazidime,"[6]; Table 3B, Ent. Der.",>512 µg/mL
"C[C@]1(Cn2ccnn2)[C@H](C(=O)O)N2C(=O)C[C@H]2S1(=O)=O [TAZO, Tazobactam, reference compound]",MIC of amoxicillin plus inhibitor,"[7]; Table 4A, ECR-AmpCEc, proportion 4/1",32 µg/mL
same,MIC of inhibitor used alone without amoxicillin,"[7]; Table 4B, ECR-AmpCEc, not tested above 128 μg/ml, “256” indicates no inhibition of cell growth",64 µg/mL
same,MIC of amoxicillin plus inhibitor,"[8]; Table 4A, EC-T10, proportion 4/1",4 µg/mL
same,MIC of inhibitor used alone without amoxicillin,"[8]; Table 4B, EC-T10, not tested above 128 μg/ml, “256” indicates no inhibition of cell growth",64 µg/mL
same,MIC of ceftazidime plus inhibitor,[3]; pBGS19,<0.25 µg/mL
same,MIC of inhibitor used alone without amoxicillin,"[3]; Table 4B, EC, not tested above 128 μg/ml, “256” indicates no inhibition of cell growth",32 µg/mL
same,MIC of amoxicillin plus inhibitor,"[9]; Table 4A, ECR-AmpCEnM, proportion 4/1",16 µg/mL
same,MIC of inhibitor used alone without amoxicillin,"[9]; Table 4B, ECRAmpCEnM, not tested above 128 μg/ml, “256” indicates no inhibition of cell growth",64 µg/mL
same,MIC of ceftazidime plus inhibitor,[4]; AmpC-MHN,4/1
same,MIC of amoxicillin plus inhibitor,"[4]; Table 4A, EC-AmpCEn, proportion 4/1",16 µg/mL
same,MIC of inhibitor used alone without amoxicillin,"[4]; Table 4B, ECAmpCEn, not tested above 128 μg/ml, “256” indicates no inhibition of cell growth",64 µg/mL
same,MIC of ceftazidime plus inhibitor,[5],8/2
same,MIC of amoxicillin plus inhibitor,"[10]; Table 4A, EC-T1, proportion 4/1",8 µg/mL
same,MIC of inhibitor used alone without amoxicillin,"[10]; Table 4B, EC-T1, not tested above 128 μg/ml, “256” indicates no inhibition of cell growth",32 µg/mL
same,MIC of ceftazidime plus inhibitor,[6]; Ent. Der.,32/8
same,MIC of amoxicillin plus inhibitor,"[6]; Table 4A, Ent-Der., proportion 4/1",128 µg/mL
same,MIC of inhibitor used alone without amoxicillin,"[6]; Table 4B, Ent-Der., not tested above 128 μg/ml, “256” indicates no inhibition of cell growth",256 µg/mL
OB(O)c1cccc2ccccc12 [NAPB],Ki,[1]; [11],10.4 µM
same,dissociation constant relative to MAPB (AmpC),[1]; compared with MAPB,two to three-fold worse (higher)
same,Ki,[2]; [13],34 µM
O=C1OC(=O)c2ccccc2/C1=N/Nc1cccc(B(O)O)c1,Ki,[1]; [14],0.075 µM
O=C(O)/C=C/c1ccc(B(O)O)cc1,Ki,[1]; [14],4.2 ± 1.1 µM
"CC1(C)S[C@@H]2[C@H](NC(=O)[C@H](N)c3ccc(O)cc3)C(=O)N2[C@H]1C(=O)O [AX, amoxicillin, reference compound]",MIC,[7]; [15],> 2050 µg/mL
same,MIC,[8]; [15],> 2050 µg/mL
same,MIC,"[9]; Enterobacter, read-out: MIC of amoxicillin (AX)",> 2050 µg/mL
same,MIC,[4]; [16],> 2050 µg/mL
same,MIC,[10]; [15],> 2050 µg/mL
same,MIC,[6]; [16],> 2050 µg/mL
OB(O)c1ccc2c(c1)OCO2,Ki,[1]; [14],53.4 ± 6.1 µM
"Cc1ccc(B(O)O)cc1 [4MEPB, 4-methylphenylboronate, reference compound]",Ki,[1]; [12],5.2 µM
same,Ki,[2]; [13],> 100 µM
"OB(O)c1cc2ccccc2o1 [BZBF2B, benzo[b]furan-2-boronic acid]",activity relative to furan-2-boronic acid parent (AmpC),[1],about 1000 fold
same,Ki,[1]; Ki E. coli AmpC,0.07 µM
same,Ki,[2],8 µM
"CC(=O)c1ccc(B(O)O)s1 [5ACTH2B, 5-acetylthiophene-2-boronic acid]",Ki,[1]; [11],1.8 µM
same,Ki,[2],> 50 µM
Cc1csc(B(O)O)c1,Ki,[1]; [14],0.5 ± 0.05 µM
